As usually defined, the pKi is −log10 of the Ki, conventionally taken in molar units. In general, pIC50 refers to the IC50 on a negative log10 scale, so that one unit is a factor of ten.

Results on 6 compounds are retold here after US20080090845A1, “Haloalkyl-substituted pyrimidinone derivatives” (Neurogen Corporation, priority 2006, published 2008).

Each structure is given as a SMILES string. pIC50, pKi: −log10 of the molar value.

The target in assay [1] is VR (Homo sapiens, UniProt Q8NER1). The note with it: typical value, background section; cited from earlier work.
Assay [2] deals with T1, human capsaicin receptor (Homo sapiens, UniProt Q8NER1).
T1 construct: pBK-CMV expression construct encoding the full length human capsaicin receptor; expressed in transfected cells
Put plainly: Calcium mobilization assay, determination of antagonist activity (Example 6). Type of assay: cell-based. The note with it: cells expressing human capsaicin receptor, capsaicin-induced fluorescence response; read-out: IC50. How it is done:
A cDNA encoding full length human capsaicin receptor (SEQ ID NO:1, 2 or 3 of U.S. Pat. No. 6,482,611) is subcloned in the plasmid pBK-CMV (Stratagene, La Jolla, Calif.) for recombinant expression in mammalian cells.
Human embryonic kidney (HEK293) cells are transfected with the pBK-CMV expression construct encoding the full length human capsaicin receptor using standard methods. The transfected cells are selected for two weeks in media containing G418 (400 μg/ml) to obtain a pool of stably transfected cells. Independent clones are isolated from this pool by limiting dilution to obtain clonal stable cell lines for use in subsequent experiments.
Cells transfected with expression plasmids (as described in Example 4) and thereby expressing human capsaicin receptor are seeded and grown to 70-90% confluency in FALCON black-walled, clear-bottomed 96-well plates (#3904, BECTON-DICKINSON, Franklin Lakes, N.J.). The culture medium is emptied from the 96 well plates and FLUO-3 AM calcium sensitive dye (Molecular Probes, Eugene, Oreg.) is added to each well (dye solution: 1 mg FLUO-3 AM, 440 μl DMSO and 440 μl 20% pluronic acid in DMSO diluted 1:250 in Krebs-Ringer HEPES (KRH) buffer (25 mM HEPES, 5 mM KCl, 0.96 mM NaH2PO4, 1 mM MgSO4, 2 mM CaCl2, 5 mM glucose, 1 mM probenecid, pH 7.4), 50 μl diluted solution per well). Plates are covered with aluminum foil and incubated at 37° C. for 1-2 hours in an environment containing 5% CO2. After the incubation, the dye is emptied from the plates, and the cells are washed once with KRH buffer, and resuspended in KRH buffer.
To measure the ability of a test compound to agonize or antagonize a calcium mobilization response in cells expressing capsaicin receptors to capsaicin or other vanilloid agonist, the EC50 of the agonist capsaicin is first determined. An additional 20 μl of KRH buffer and 1 μl DMSO is added to each well of cells, prepared as described above. 100 μl capsaicin in KRH buffer is automatically transferred by the FLIPR instrument to each well. Capsaicin-induced calcium mobilization is monitored using either FLUOROSKAN ASCENT (Labsystems; Franklin, Mass.) or FLIPR (fluorometric imaging plate reader system; Molecular Devices, Sunnyvale, Calif.) instruments. Data obtained between 30 and 60 seconds after agonist application are used to generate an 8-point concentration response curve, with final capsaicin concentrations of 1 nM to 3 μM. KALEIDAGRAPH software (Synergy Software, Reading, Pa.) is used to fit the data to the equation: y=a*(1/(1+(b/x)^c)) to determine the 50% excitatory concentration (EC50) for the response. In this equation, y is the maximum fluorescence signal, x is the concentration of the agonist or antagonist (in this case, capsaicin), a is the Emax, b corresponds to the EC50 value and c is the Hill coefficient. Determination of Agonist Activity
Test compounds are dissolved in DMSO, diluted in 20 μl KRH buffer so that the final concentration of test compounds in the assay well is between 1 μM and 5 μM, and added to cells prepared as described above. The 96 well plates containing prepared cells and test compounds are incubated in the dark, at room temperature for 0.5 to 6 hours. It is important that the incubation not continue beyond 6 hours. Just prior to determining the fluorescence response, 100 μl capsaicin in KRH buffer at twice the EC50 concentration determined as described above is automatically added by the FLIPR instrument to each well of the 96 well plate for a final sample volume of 200 μl and a final capsaicin concentration equal to the EC50. The final concentration of test compounds in the assay wells is between 1 μM and 5 μM. […] The concentration of antagonist required to provide a 50% decrease, relative to the response observed in the presence of capsaicin and without antagonist, is the IC50 for the antagonist, and is preferably below 1 micromolar, 100 nanomolar, 10 nanomolar or 1 nanomolar.

T1 sequence (Q8NER1 whole entry): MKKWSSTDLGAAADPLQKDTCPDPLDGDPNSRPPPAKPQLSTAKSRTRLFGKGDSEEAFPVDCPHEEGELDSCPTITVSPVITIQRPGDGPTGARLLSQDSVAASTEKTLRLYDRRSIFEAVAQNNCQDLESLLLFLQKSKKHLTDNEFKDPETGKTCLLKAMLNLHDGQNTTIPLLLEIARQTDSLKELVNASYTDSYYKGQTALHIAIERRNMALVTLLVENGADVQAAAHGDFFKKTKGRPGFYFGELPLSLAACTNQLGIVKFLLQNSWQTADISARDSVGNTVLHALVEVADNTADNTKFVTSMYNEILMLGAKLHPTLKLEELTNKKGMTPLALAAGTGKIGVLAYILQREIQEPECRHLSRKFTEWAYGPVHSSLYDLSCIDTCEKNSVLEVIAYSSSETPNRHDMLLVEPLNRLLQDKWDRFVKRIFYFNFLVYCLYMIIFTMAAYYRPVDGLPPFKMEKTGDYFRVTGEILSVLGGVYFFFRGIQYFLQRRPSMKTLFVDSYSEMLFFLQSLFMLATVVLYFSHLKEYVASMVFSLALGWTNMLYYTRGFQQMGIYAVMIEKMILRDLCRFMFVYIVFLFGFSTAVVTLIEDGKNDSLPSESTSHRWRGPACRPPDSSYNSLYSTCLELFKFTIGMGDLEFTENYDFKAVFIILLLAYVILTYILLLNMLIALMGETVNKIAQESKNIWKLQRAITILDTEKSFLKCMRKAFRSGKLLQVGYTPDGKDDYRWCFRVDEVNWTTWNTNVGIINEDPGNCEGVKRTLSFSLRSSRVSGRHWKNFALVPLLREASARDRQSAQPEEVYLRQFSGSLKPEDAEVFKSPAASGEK
VR, sequence (Q8NER1 whole entry): as above

On to `Cl.Cl.Cl.Cl.Cl.Cl.N.N.N.N.N.N.N.N.N.N.N.N.N.N.[O-2].[O-2].[Ru+3].[Ru+3].[Ru+4]` [ruthenium red], for which the pKi in assay [1] was not above 3.85. Take `CC(Cc1nc2c(ncn2CC(F)(F)F)c(=O)n1-c1ccc(Cl)cc1)C(F)(F)F` (stereo not drawn) [Compound 24, 1-(4-chlorophenyl)-9-(2,2,2-trifluoroethyl)-2-(3,3,3-trifluoro-2-methylpropyl)-1,9-dihydro-6H-purin-6-one]: the negative-log IC50 (pIC50) in assay [2] is not below 7.00. On the same count and under the same terms, for `CC(CCc1nc2c(ncn2CC(F)F)c(=O)n1-c1ccc(Cl)cc1)C(F)(F)F` (stereo not drawn) [Compound 23, 1-(4-chlorophenyl)-9-(2,2-difluoroethyl)-2-(4,4,4-trifluoro-3-methylbutyl)-1,9-dihydro-6H-purin-6-one] the value was not below 7.00; for `CCn1cnc2c(=O)n(-c3ccc(Cl)cc3)c(CC(C)CC(F)(F)F)nc21` (stereo not drawn) [Compound 11, 1-(4-chlorophenyl)-9-ethyl-2-(4,4,4-trifluoro-2-methylbutyl)-1,9-dihydro-6H-purin-6-one], not below 7.00. On the same count and under the same terms, next, `CCn1cnc2c(=O)n(-c3ccc(C#N)cc3)c(CCC(C)C(F)(F)F)nc21` (stereo not drawn) [Compound 34, 4-[9-ethyl-6-oxo-2-(4,4,4-trifluoro-3-methylbutyl)-6,9-dihydro-1H-purin-1-yl]benzonitrile]: not below 7.00; `CCn1cnc2c(=O)n(-c3ccc(F)cc3)c(CC(C)CC(F)(F)F)nc21` (stereo not drawn) [Compound 13, 9-ethyl-1-(4-fluorophenyl)-2-(4,4,4-trifluoro-2-methylbutyl)-1,9-dihydro-6H-purin-6-one]: not below 7.00.
